Test results published in ChEMBL document CHEMBL6096674, “Design, Synthesis, and Anticancer Activity of Drug-like Iron Chelators/G-Quadruplex Binders as Synergic Dual Targeting Agents” (J Med Chem, 2025).
Calls of active or inactive are those of the source. No cut-off for these calls is given here.

Legend:
Quadruplex DNA [1] = test: Stabilization of Parallel c-Kit1 G4-quadruplex DNA (5'-AGGGAGGGCGCTGGGAGGAGGG-3') (unknown origin) assessed as change in melting temperature at 5 equiv. by CD melting based analysis; assay type: nucleic-acid assay
[2] = Drug uptake in human Jurkat cells assessed as localization of compound in nuclear and perinuclear region at IC50 incubated for 24 hrs by NucSpot Live 488 probe based fluorescence microscopy; assay type: ADME, cell-based
MCF7 = test: Antiproliferative activity against human MCF7 cells assessed as decrease in cell survival incubated for 48 hrs by MTT assay; assay type: functional, cell-based; details: MCF7, 48 h
[3] = Metal chelating activity assessed as compound-Fe3+ complex formation at compound:iron concentration ratio of 2:1 and measured in acidic medium
A-375 = test: Antiproliferative activity against human A-375 cells assessed as decrease in cell survival incubated for 48 hrs by MTT assay; assay type: functional, cell-based; details: A-375, 48 h
Quadruplex DNA [4] = test: Binding affinity to Cy5-labeled c-Myc G4-quadruplex DNA (Cy5-TGAGGGTGGGTAGGGTGGGTAA-3') (unknown origin) assessed as equilibrium dissociation constant measured at 25 degC by microscale thermophoresis analysis; assay type: nucleic-acid assay
Jurkat [5] = test: Induction of apoptosis in human Jurkat cells assessed as reduction in Bcl-2 expression at IC50 incubated for 24 to 48 hrs by western blot analysis; assay type: functional, cell-based; details: time 24-48 hrs
[6] = Cytotoxicity against human HaCaT cells assessed as decrease in cell survival incubated for 48 hrs by MTT assay; assay type: toxicity, cell-based
[7] = Metal chelating activity assessed as affinity to Fe3+ at compound:iron concentration ratio of 3:1 and measured at pH 7.4
Quadruplex DNA [8] = test: Binding affinity to Bcl-2 G4-quadruplex DNA (5'-AGGGCGCGGGAGGAAGGGGGCGGGA-3') (unknown origin) assessed as perturbations of imino protons of G7,G19 and G23 within 3' G-tetrad with no significant change in aromatic proton regions upto compound:G4 ratio of 6:1 by ID IH NMR analysis; assay type: nucleic-acid assay
Jurkat [9] = test: Antiproliferative activity against human Jurkat cells assessed as decrease in cell survival incubated for 48 hrs by MTT assay; assay type: functional, cell-based
HCT-116 = test: Antiproliferative activity against human HCT-116 cells assessed as decrease in cell survival incubated for 48 hrs by MTT assay; assay type: functional, cell-based; details: HCT-116, 48 h
[10] = Metal chelating activity assessed as compound-Fe3+ complex formation at compound:iron concentration ratio of 1:1 and measured in acidic medium
Quadruplex DNA [11] = test: Binding affinity to Bcl-2 G4-quadruplex DNA (5'-AGGGCGCGGGAGGAAGGGGGCGGGA-3') (unknown origin) assessed as perturbations of imino protons of G1,G17 and G21 within 5' G-tetrad with no significant change in aromatic proton regions upto compound:G4 ratio of 6:1 by ID IH NMR analysis; assay type: nucleic-acid assay
Hairpin duplex DNA [12] = test: Binding affinity to Cy5-labeled Hairpin duplex DNA (Cy5-CGCGAATTCGCGTTTCGCGAATTCGCG-3') (unknown origin) assessed as equilibrium dissociation constant measured at 25 degC by microscale thermophoresis analysis; assay type: nucleic-acid assay
[13] = Metal chelating activity assessed as free Fe2+ chelation by measuring decrease in cellular LIP content at IC50 measured after 48 hrs by red fluorescent probe based fluorescence microscopy
Quadruplex DNA [14] = test: Binding affinity to Cy5-labeled Bcl-2 G4-quadruplex DNA (Cy5-AGGGCGCGGGAGGAAGGGGGCGGGA-3') (unknown origin) assessed as equilibrium dissociation constant measured at 25 degC by microscale thermophoresis analysis; assay type: nucleic-acid assay
Quadruplex DNA [15] = test: Stabilization of Parallel c-Myc G4-quadruplex DNA (5'-TGAGGGTGGGTAGGGTGGGTAA-3') (unknown origin) assessed as change in melting temperature at 5 equiv. by CD melting based analysis; assay type: nucleic-acid assay
[16] = Metal chelating activity assessed as compound-Fe3+ complex formation at compound:iron concentration ratio of 3:1 and measured at pH 6 to 8
Quadruplex DNA [17] = test: Binding affinity to c-Myc G4-quadruplex DNA (5'-TGAGGGTGGGTAGGGTGGGTAA-3') (unknown origin) assessed as perturbations of imino protons of G9,G13,G18,G22 within 3' G-tetrad at compound:G4 ratio of 2:1 by 1D 1H NMR analysis; assay type: nucleic-acid assay
Quadruplex DNA [18] = test: Binding affinity to human Cy5-labeled Tel23 G4-quadruplex DNA (Cy5-TAGGGTTAGGGTTAGGGTTAGGG-3') assessed as equilibrium dissociation constant measured at 25 degC by microscale thermophoresis analysis; assay type: nucleic-acid assay
Quadruplex DNA [19] = test: Binding affinity to c-Myc G4-quadruplex DNA (5'-TGAGGGTGGGTAGGGTGGGTAA-3') (unknown origin) assessed as perturbations of imino protons of G7,G11,G16,G20 within 5' G-tetrad at compound:G4 ratio of 2:1 by 1D 1H NMR analysis; assay type: nucleic-acid assay
Jurkat [20] = test: Antiproliferative activity human Jurkat cells assessed as reduction in cell number incubated for 48 hrs by phase contrast light microscopy; assay type: functional, cell-based; details: dose 10-100 µM
Quadruplex DNA [21] = test: Binding affinity to c-Myc G4-quadruplex DNA (5'-TGAGGGTGGGTAGGGTGGGTAA-3') (unknown origin) assessed as perturbations of imino protons of G8,G12,G17,G21 within middle G-tetrad at compound:G4 ratio of 2:1 by 1D 1H NMR analysis; assay type: nucleic-acid assay
Quadruplex DNA [22] = test: Stabilization of Hybrid Bcl2 G4-quadruplex DNA (5'-AGGGCGCGGGAGGAAGGGGGCGGGA-3') (unknown origin) assessed as change in melting temperature at 5 equiv. by CD melting based analysis; assay type: nucleic-acid assay
Hairpin duplex DNA [23] = test: Stabilization of Hairpin duplex DNA (5'-CGCGAATTCGCGTTTCGCGAATTCGCG-3') (unknown origin) assessed as change in melting temperature at 5 equiv. by CD melting based analysis; assay type: nucleic-acid assay
Jurkat [24] = test: Induction of apoptosis in human Jurkat cells assessed as induction of phosphotidylserine exposure at IC50 incubated for 48 hrs by fluorescence microscopy; assay type: functional, cell-based
Quadruplex DNA [25] = test: Binding affinity to c-Myc G4-quadruplex DNA (5'-TGAGGGTGGGTAGGGTGGGTAA-3') (unknown origin) assessed as perturbations of aromatic protons of T23, A24 and A25 with no significant change in aromatic protons of loops at compound:G4 ratio of 2:1 by 1D 1H NMR analysis; assay type: nucleic-acid assay
Quadruplex DNA [26] = test: Stabilization of human Hybrid Tel23 G4-quadruplex DNA (5'-TAGGGTTAGGGTTAGGGTTAGGG-3') assessed as change in melting temperature at 5 equiv. by CD melting based analysis; assay type: nucleic-acid assay
Quadruplex DNA [27] = test: Binding affinity to Bcl-2 G4-quadruplex DNA (5'-AGGGCGCGGGAGGAAGGGGGCGGGA-3') (unknown origin) assessed as perturbations of imino protons of G8,G18 and G22 within middle G-tetrad with no significant change in aromatic proton regions upto compound:G4 ratio of 6:1 by ID IH NMR analysis; assay type: nucleic-acid assay
Quadruplex DNA [28] = test: Stabilization of Parallel c-Kit2 G4-quadruplex DNA (5'-CGGGCGGGCGCTAGGGAGGGT-3') (unknown origin) assessed as change in melting temperature at 5 equiv. by CD melting based analysis; assay type: nucleic-acid assay
Quadruplex DNA [29] = test: Binding affinity to Cy5-labeled c-Kit2 G4-quadruplex DNA (Cy5-CGGGCGGGCGCTAGGGAGGGT-3') (unknown origin) assessed as equilibrium dissociation constant measured at 25 degC by microscale thermophoresis analysis; assay type: nucleic-acid assay

CN(C)CCCNC(=O)c1ccc2[nH]c(=O)c3cc(=O)c(O)cn3c2c1
ΔTm (Quadruplex DNA [1]): 5.5 °C
Drug uptake [2]: Active
IC50 (MCF7): > 200 µM
Activity [3]: Active
IC50 (A-375): > 200 µM
Kd (Quadruplex DNA [4]): 0.3 µM
Activity (Jurkat [5]): Active
IC50 at 48 h [6]: > 200 µM
pFe3+ [7]: 16.8
Activity (Quadruplex DNA [8]): Active
IC50 (Jurkat [9]): 30 µM
IC50 (HCT-116): > 200 µM
Activity [10]: Active
Activity (Quadruplex DNA [11]): Active
Kd (Hairpin duplex DNA [12]): > 20 µM
Activity [13]: Active
Kd (Quadruplex DNA [14]): 0.5 µM
ΔTm (Quadruplex DNA [15]): 7.4 °C
Activity [16]: Active
Activity (Quadruplex DNA [17]): Active
Kd (Quadruplex DNA [18]): 3.1 µM
Activity (Quadruplex DNA [19]): Active
Activity (Jurkat [20]): Dose-dependent-effect
Activity (Quadruplex DNA [21]): Active
ΔTm (Quadruplex DNA [22]): 8.7 °C
ΔTm (Hairpin duplex DNA [23]): 1.8 °C
Activity (Jurkat [24]): Active
Activity (Quadruplex DNA [25]): Active
ΔTm (Quadruplex DNA [26]): 3.8 °C
Activity (Quadruplex DNA [27]): Active
ΔTm (Quadruplex DNA [28]): 10.1 °C
Kd (Quadruplex DNA [29]): 1.1 µM

O=C(O)c1ccc2[nH]c(=O)c3cc(=O)c(OCc4ccccc4)cn3c2c1
ΔTm (Quadruplex DNA [1]): -0.1 °C
ΔTm (Quadruplex DNA [15]): 0.5 °C
ΔTm (Quadruplex DNA [22]): 1.4 °C
ΔTm (Hairpin duplex DNA [23]): 1 °C
ΔTm (Quadruplex DNA [26]): 1 °C
ΔTm (Quadruplex DNA [28]): 3.3 °C

O=C(NCc1ccccc1)c1ccc2[nH]c(=O)c3cc(=O)c(OCc4ccccc4)cn3c2c1
ΔTm (Quadruplex DNA [1]): 0.1 °C
ΔTm (Quadruplex DNA [15]): 3.7 °C
ΔTm (Quadruplex DNA [22]): 3.6 °C
ΔTm (Hairpin duplex DNA [23]): 0.3 °C
ΔTm (Quadruplex DNA [26]): 1.2 °C
ΔTm (Quadruplex DNA [28]): 7.5 °C

O=C(NCCN1CCCC1)c1ccc2[nH]c(=O)c3cc(=O)c(O)cn3c2c1
ΔTm (Quadruplex DNA [1]): 3.6 °C
ΔTm (Quadruplex DNA [15]): 5 °C
ΔTm (Quadruplex DNA [22]): 1.6 °C
ΔTm (Hairpin duplex DNA [23]): 2.5 °C
ΔTm (Quadruplex DNA [26]): 2.7 °C
ΔTm (Quadruplex DNA [28]): 6.6 °C

N=C(N)NCCCNC(=O)c1ccc2[nH]c(=O)c3cc(=O)c(O)cn3c2c1
ΔTm (Quadruplex DNA [1]): 3.2 °C
ΔTm (Quadruplex DNA [15]): 3.6 °C
ΔTm (Quadruplex DNA [22]): 8.5 °C
ΔTm (Hairpin duplex DNA [23]): 0.5 °C
ΔTm (Quadruplex DNA [26]): 2.8 °C
ΔTm (Quadruplex DNA [28]): 8.6 °C

Cc1c(O)c(=O)ccn1C
pFe3+ [7]: 20

COc1cn2c(cc1=O)c(=O)[nH]c1ccc(C(=O)NCCCN(C)C)cc12
ΔTm (Quadruplex DNA [1]): 9.3 °C
ΔTm (Quadruplex DNA [15]): 5.9 °C
ΔTm (Quadruplex DNA [22]): 13.5 °C
ΔTm (Hairpin duplex DNA [23]): 1.8 °C
ΔTm (Quadruplex DNA [26]): 4.2 °C
ΔTm (Quadruplex DNA [28]): 17.3 °C

CN(C)CCCNC(=O)c1ccc2[nH]c(=O)c3cc(=O)c(OCc4ccccc4)cn3c2c1
ΔTm (Quadruplex DNA [1]): 9.6 °C
IC50 (MCF7): > 200 µM
IC50 (A-375): > 200 µM
IC50 at 48 h [6]: > 200 µM
IC50 (Jurkat [9]): 55 µM
IC50 (HCT-116): > 200 µM
Activity [13]: inactive
ΔTm (Quadruplex DNA [15]): 12 °C
Activity (Jurkat [20]): Dose-dependent-effect
ΔTm (Quadruplex DNA [22]): 15.6 °C
ΔTm (Hairpin duplex DNA [23]): 1.5 °C
ΔTm (Quadruplex DNA [26]): 5.1 °C
ΔTm (Quadruplex DNA [28]): 27.6 °C

O=C(NCCN1CCOCC1)c1ccc2[nH]c(=O)c3cc(=O)c(O)cn3c2c1
ΔTm (Quadruplex DNA [1]): 2.2 °C
ΔTm (Quadruplex DNA [15]): 1.7 °C
ΔTm (Quadruplex DNA [22]): -0.5 °C
ΔTm (Hairpin duplex DNA [23]): 2.8 °C
ΔTm (Quadruplex DNA [26]): 2.3 °C
ΔTm (Quadruplex DNA [28]): 5.5 °C
